Data from US10130096B2, “Method for protecting useful plants or plant propagation material” (SYNGENTA PARTICIPATIONS AG, priority 2011, dated 2018).

What was measured:
Pythium ultimum [1] = test: Pythium ultimum liquid culture growth inhibition; format: cell-based; conditions: Globisporangium ultimum, photometric, 2-3 days after application, read-out: control on Pythium ultimum
Description: Mycelia fragments and oospores of a newly grown liquid culture of the fungus are directly mixed into nutrient broth (PDB potato dextrose broth). After placing a (DMSO) solution of test compound into a microtiter plate (96-well format), the nutrient broth containing the fungal mycelia/spore mixture is added.

[2] = test system: Glomerella lagenarium (Colletotrichum lagenarium); test: Glomerella lagenarium liquid culture growth inhibition; format: cell-based; conditions: Colletotrichum orbiculare, photometric, 3-4 days after application, read-out: control on Glomerella lagenarium
Description: (§1) Conidia of the fungus from cryogenic storage are directly mixed into nutrient broth (PDB potato dextrose broth). After placing a (DMSO) solution of test compound into a microtiter plate (96-well format), the nutrient broth containing the fungal spores is added.

Fusarium culmorum = Fusarium culmorum liquid culture growth inhibition; format: cell-based; conditions: photometric, 3-4 days after application, read-out: control on Fusarium culmorum
Description: as §1, with “added. The test plates are incubated at 24° C. and the inhibition of growth is determined photometrically 3-4 days after application.” for “added.”

[3] = test system: Mycosphaerella arachidis (Cercospora arachidicola); test: Mycosphaerella arachidis liquid culture growth inhibition; format: cell-based; conditions: photometric, 4-5 days after application, read-out: control on Mycosphaerella arachidis
Description: as §1

[4] = test system: Monographella nivalis (Microdochium nivale); test: Monographella nivalis liquid culture growth inhibition; format: cell-based; conditions: photometric, 4-5 days after application, read-out: control on Monographella nivalis
Description: as §1, with “added. The test plates are incubated at 24° C. and the inhibition of growth is determined photometrically 4-5 days after application.” for “added.”

[5] = test system: Botryotinia fuckeliana (Botrytis cinerea); test: Botryotinia fuckeliana liquid culture growth inhibition; format: cell-based; conditions: photometric, 3-4 days after application, read-out: control on Botryotinia fuckeliana
Description: Conidia of the fungus from cryogenic storage are directly mixed into nutrient broth (Vogels broth). After placing a (DMSO) solution of test compound into a microtiter plate (96-well format), the nutrient broth containing the fungal spores is added.

Alternaria solani = Alternaria solani on tomato plants; format: in vivo; conditions: 4-week old tomato plants cv. Roter Gnom, spray, inoculated two days after application
Description: 4-week old tomato plants cv. Roter Gnom are sprayed in a spray chamber with the formulated test compound diluted in water. The test plants are inoculated by spraying them with a spore suspension two days after application. The inoculated test plants are incubated at 22/18° C. (day/night) and 95% rh in a greenhouse and the percentage leaf area covered by disease is assessed when an appropriate level of disease appears on untreated check plants (5-7 days after application).

[6] = test system: Thanatephorus cucumeris (Rhizoctonia solani); test: Thanatephorus cucumeris liquid culture growth inhibition; format: cell-based; conditions: photometric, 3-4 days after application, read-out: control on Thanatephorus cucumeris
Description: Mycelia fragments of a newly grown liquid culture of the fungus are directly mixed into nutrient broth (PDB potato dextrose broth). After placing a (DMSO) solution of the test compounds into a microtiter plate (96-well format), the nutrient broth containing the fungal material is added. The test plates are incubated at 24° C. and the inhibition of growth is determined photometrically 3-4 days after application.

Pythium ultimum [7] = test: Example B-5: seed treatment against Pythium ultimum on cotton; format: in vivo; conditions: Globisporangium ultimum, rate of 200 g/100 kg seeds, infested soil, number of germinated, healthy plants
Description: The trial is kept for 1 week in a growth room at 20° C. and darkness. After this period the trial is transferred to a greenhouse where a temperature of 21° C. and a 14 h light period is provided until the trial is finished. The following assessments are made: number of germinated, healthy plants. Each number is determined for 150 seeds per treatment (3 replicates a 50 seeds).

Compound | inhibition of growth at 200 ppm (Pythium ultimum [1]) [%] | inhibition of growth at 200 ppm [2] [%] | inhibition of growth at 200 ppm (Fusarium culmorum) [%] | inhibition of growth at 200 ppm [3] [%] | inhibition of growth at 200 ppm [4] [%] | inhibition of growth at 200 ppm [5] [%] | pest or weed control at 60 ppm (Alternaria solani) [%] | inhibition of growth at 200 ppm [6] [%] | pest or weed control at 200 g/100 kg seeds (Pythium ultimum [7]) [%]
OB1OCc2cc3ccccc3cc21 [Compound 15, 3H-2-Oxa-1-bora-cyclopenta[b]naphthalen-1-ol] | ≥ 80 | ≥ 80 | ≥ 80 | ≥ 80 | ≥ 80 | ≥ 80 | ≥ 60 |  | 
OB1OCc2ccc(Cl)cc21 [Compound 6, 6-Chloro-3H-benzo[c][1,2]oxaborol-1-ol] | ≥ 80 | ≥ 80 | ≥ 80 | ≥ 80 | ≥ 80 | ≥ 80 |  | ≥ 80 | 
CC(C)(C)c1ccc2c(c1)COB2OCCN [Compound 33, 2-(5-tert-Butyl-3H-benzo[c][1,2]oxaborol-1-yloxy)-ethylamine] |  |  |  | ≥ 80 |  |  |  |  | 
CC(C)(C)c1ccc2c(c1)COB2O [Compound 34, 5-tert-Butyl-3H-benzo[c][1,2]oxaborol-1-ol] |  | ≥ 80 |  | ≥ 80 | ≥ 80 |  |  |  | 
CC(C)(N)COB1OCc2cc(Cl)ccc21 [Compound 21, 2-(5-Chloro-3H-benzo[c][1,2]oxaborol-1-yloxy)-1,1-dimethyl-ethylamine] | ≥ 80 | ≥ 80 | ≥ 80 | ≥ 80 | ≥ 80 | ≥ 80 |  | ≥ 80 | 
OB1OCc2ccccc21 [Compound 11, 3H-Benzo[c][1,2]oxaborol-1-ol] | ≥ 80 | ≥ 80 | ≥ 80 | ≥ 80 |  | ≥ 80 |  |  | ≥ 50
OB1OCc2c1ccc1ccccc21 [Compound 16, 1H-2-Oxa-3-bora-cyclopenta[a]naphthalen-3-ol] |  | ≥ 80 |  | ≥ 80 | ≥ 80 | ≥ 80 |  |  | 
N[C@@H](COB1OCc2cc(Cl)ccc21)c1ccccc1 [Compound 23, (R)-2-(5-Chloro-3H-benzo[c][1,2]oxaborol-1-yloxy)-1-phenyl-ethylamine] | ≥ 80 | ≥ 80 | ≥ 80 | ≥ 80 | ≥ 80 | ≥ 80 |  |  | 
NCC(OB1OCc2cc(Cl)ccc21)c1ccccc1 (stereo not drawn) [Compound 3, 2-(5-Chloro-3H-benzo[c][1,2]oxaborol-1-yloxy)-2-phenyl-ethylamine] | ≥ 80 | ≥ 80 | ≥ 80 | ≥ 80 | ≥ 80 | ≥ 80 | ≥ 60 |  | 
CC(CN)OB1OCc2cc(Cl)ccc21 (stereo not drawn) [Compound 27, 2-(5-Chloro-3H-benzo[c][1,2]oxaborol-1-yloxy)-propylamine] | ≥ 80 | ≥ 80 | ≥ 80 | ≥ 80 | ≥ 80 | ≥ 80 | ≥ 60 | ≥ 80 | 
CC(C)(N)COB1OCc2ccccc21 [Compound 32, 2-(3H-Benzo[c][1,2]oxaborol-1-yloxy)-1,1-dimethyl-ethylamine] | ≥ 80 | ≥ 80 | ≥ 80 | ≥ 80 | ≥ 80 | ≥ 80 |  |  | 
Clc1ccc2c(c1)COB2Oc1cccc2cccnc12 [Compound 22, 8-(5-Chloro-3H-benzo[c][1,2]oxaborol-1-yloxy)-quinoline] | ≥ 80 | ≥ 80 | ≥ 80 | ≥ 80 | ≥ 80 | ≥ 80 |  | ≥ 80 | 
N[C@H](COB1OCc2cc(Cl)ccc21)Cc1ccccc1 [Compound 20, (S)-1-Benzyl-2-(5-chloro-3H-benzo[c][1,2]oxaborol-1-yloxy)-ethylamine] | ≥ 80 | ≥ 80 | ≥ 80 | ≥ 80 | ≥ 80 | ≥ 80 |  | ≥ 80 | 
NCCOB1OCc2cc(Cl)ccc21 [Compound 36, 2-(5-Chloro-3H-benzo[c][1,2]oxaborol-1-yloxy)-ethylamine] | ≥ 80 | ≥ 80 | ≥ 80 | ≥ 80 | ≥ 80 | ≥ 80 |  | ≥ 80 | 
NCCOB1OCc2cc(Oc3ccccc3)ccc21 [Compound 35, 2-(5-Phenoxy-3H-benzo[c][1,2]oxaborol-1-yloxy)-ethylamine] |  | ≥ 80 |  | ≥ 80 | ≥ 80 |  |  |  | 
Clc1ccc2c(c1)COB2OC[C@@H]1CCCN1 [Compound 24, (S)-2-(5-Chloro-3H-benzo[c][1,2]oxaborol-1-yloxymethyl)-pyrrolidine] | ≥ 80 | ≥ 80 | ≥ 80 | ≥ 80 | ≥ 80 | ≥ 80 |  | ≥ 80 | 
N[C@H](COB1OCc2cc(Cl)ccc21)c1ccccc1 [Compound 25, (S)-2-(5-Chloro-3H-benzo[c][1,2]oxaborol-1-yloxy)-1-phenyl-ethylamine] | ≥ 80 | ≥ 80 | ≥ 80 | ≥ 80 | ≥ 80 | ≥ 80 |  |  | 
c1ccc2c(c1)COB2Oc1cccc2cccnc12 [Compound 31, 8-(3H-Benzo[c][1,2]oxaborol-1-yloxy)-quinoline] | ≥ 80 | ≥ 80 | ≥ 80 | ≥ 80 | ≥ 80 | ≥ 80 |  |  | 
NCCOB1OCc2c1ccc1ccccc21 [Compound 18, 2-(1H-2-Oxa-3-bora-cyclopenta[a]naphthalen-3-yloxy)-ethylamine] | ≥ 80 | ≥ 80 | ≥ 80 | ≥ 80 | ≥ 80 |  | ≥ 60 |  | 
OB1OC(c2ccccc2)c2ccccc21 (stereo not drawn) [Compound 19, 3-Phenyl-3H-benzo[c][1,2]oxaborol-1-ol] | ≥ 80 | ≥ 80 |  | ≥ 80 | ≥ 80 |  |  |  | 
CC(N)COB1OCc2cc(Cl)ccc21 (stereo not drawn) [Compound 28, 2-(5-Chloro-3H-benzo[c][1,2]oxaborol-1-yloxy)-1-methyl-ethylamine] | ≥ 80 | ≥ 80 | ≥ 80 | ≥ 80 | ≥ 80 | ≥ 80 | ≥ 60 | ≥ 80 | 
